Values quoted from earlier work in article PMC4955775 (Bioorganic & medicinal chemistry letters, 2016).
[ ]: non-standard residue; d: D form. Dmt = Cc1cc(O)cc(C)c1C[C@H](N)C(=O)O; Tic = O=C(O)[C@@H]1Cc2ccccc2CN1

Cc1cc(O)cc(C)c1C[C@H](N)C(=O)N[C@H](CCCNC(=N)N)C(=O)N[C@@H](Cc1ccccc1)C(=O)N[C@@H](CCCCN)C(N)=O [Compound 5, H-Dmt-D-Arg-Phe-Lys-NH2]
duration of the antinociceptive effect, times longer than morphine: 4 times

H-[Dmt][Tic]FF-NH2 [DIPP-NH2]
fold increased binding affinity at δ receptor compared to TIPP-NH2 (δ receptor): 25 fold | fold increased binding affinity at μ receptor compared to TIPP-NH2 (μ receptor): 65 fold
